Consider 9 compounds from article PMC7055688 (Journal of fluorine chemistry, 2019).

By solubility is commonly meant the dissolved amount per volume that the medium holds. High values mean much dissolved substance, low ones little dissolved substance. A word on the chromatographic logP: it is lipophilicity estimated from chromatographic retention.

Data set [1] is described as follows: solubility in sodium phosphate buffer. In kind it is physicochemical. To be noted: pH 7.4, aqueous buffer, kinetic from dmso stock.
The nature of data set [2]: experimental LogP by HPLC-MS. Format: physicochemical.
For data set [3], the target named is T1, human sEH (Homo sapiens, UniProt P34913).
T1 sequence (P34913 1-555): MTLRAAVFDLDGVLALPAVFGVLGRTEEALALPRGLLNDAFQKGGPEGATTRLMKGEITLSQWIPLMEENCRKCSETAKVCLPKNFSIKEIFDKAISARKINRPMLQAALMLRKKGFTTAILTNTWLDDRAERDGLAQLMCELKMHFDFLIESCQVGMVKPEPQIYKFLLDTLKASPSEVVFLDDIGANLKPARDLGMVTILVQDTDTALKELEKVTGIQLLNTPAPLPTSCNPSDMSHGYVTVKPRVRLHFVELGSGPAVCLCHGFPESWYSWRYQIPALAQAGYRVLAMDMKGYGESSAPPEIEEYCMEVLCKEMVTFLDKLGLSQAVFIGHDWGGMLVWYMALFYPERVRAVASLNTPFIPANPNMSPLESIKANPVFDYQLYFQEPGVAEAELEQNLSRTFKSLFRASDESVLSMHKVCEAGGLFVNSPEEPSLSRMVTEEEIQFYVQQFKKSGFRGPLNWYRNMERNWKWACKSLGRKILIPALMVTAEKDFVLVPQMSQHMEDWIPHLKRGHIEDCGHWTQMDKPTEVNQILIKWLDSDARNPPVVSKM
The data set is described as follows: kinetic fluorescent assay of sEH inhibitory potency. Format: biochemical. To be noted: for fold drop of activity compared to 3a: ratio of IC50 to that of 3a; for fold increase of activity compared to 3a: ratio of IC50 of 3a to that of the compound.

Molecules are shown by their SMILES. In brackets after ≈: the same amount, converted by molar mass.

`O=C(NCC12CC3CC(CC(C3)C1)C2)Nc1ccccc1F` [3b, 1-[(Adamantan-1-yl)methyl]-3-(2-fluorophenyl) urea] returned a solubility in data set [1] of 60 to 70 µM (≈ 18.1 to 21.2 µg/mL). The same compound gave a chromatographic logP in data set [2] of 4.4.

In the case of `CCC(CC12CC3CC(CC(C3)C1)C2)NC(=O)Nc1ccccc1F` (stereo not shown) [3d, 1-[1-(Adamantan-1-yl)butane-2-yl]-3-(2-fluorophenyl) urea], the solubility in data set [1] was 50 to 60 µM (≈ 17.2 to 20.7 µg/mL). In data set [2], this compound registered a chromatographic logP of 5.8. The “fold drop of activity compared to 3a” value in data set [3] was found to be 170 fold.

In data set [1], `CC12CC3CC(C1)CC(NC(=O)Nc1ccccc1F)(C3)C2` [3f, 1-[3-methyl(Adamantan-1-yl)]-3-(2-fluorophenyl) urea] registered a solubility of 50 to 60 µM (≈ 15.1 to 18.1 µg/mL). Further, the “fold increase of activity compared to 3a” value in data set [3] came out at 2.5 fold.

For the compound `CC12CC3(C)CC(C)(C1)CC(NC(=O)Nc1ccccc1F)(C2)C3` [3h, 1-[3,5,7-trimethyl(Adamantan-1-yl)]-3-(2-fluorophenyl) urea], in data set [1], the solubility lay within 70 to 80 µM (≈ 23.1 to 26.4 µg/mL). In addition, the “fold drop of activity compared to 3a” value in data set [3] came out at 25 fold.

Turning to `CCCC(CNC(=O)Nc1ccccc1F)C1C2CC3CC(C2)CC1C3` (stereo not shown) [3j, 1-[2-(Adamantan-2-yl)pentane-1-yl]-3-(2-fluorophenyl) urea], the chromatographic logP in data set [2] came to 6.55.

In data set [1], `O=C(Nc1ccccc1F)NC12CC3CC(CC(C3)C1)C2` [3a, 1-(Adamantan-1-yl)-3-(2-fluorophenyl) urea] returned a solubility of 70 to 80 µM (≈ 20.2 to 23.1 µg/mL). Further, in data set [3], the “fold more active than 2-hydroxy substituted analog” value turned out to be 37 fold and the “fold more active than unsubstituted 1-(adamantan-1-yl)-3-phenyl urea” value is 4 fold.

In data set [1], `CC(NC(=O)Nc1ccccc1F)C12CC3CC(CC(C3)C1)C2` (stereo not shown) [3c, 1-[1-(Adamantan-1-yl)ethyl]-3-(2-fluorophenyl) urea] came in with a solubility of 50 to 60 µM (≈ 15.8 to 19 µg/mL). This compound returned a chromatographic logP in data set [2] of 4.75. In addition, the “fold drop of activity compared to 3a” value in data set [3] is 15 fold.

In the case of `O=C(Nc1ccc(C23CC4CC(CC(C4)C2)C3)cc1)Nc1ccccc1F` [3e, 1-[4-(Adamantan-1-yl)phenyl]-3-(2-fluorophenyl) urea], in data set [1], the solubility lay in the range of 80 to 90 µM (≈ 29.2 to 32.8 µg/mL).

`O=C(Nc1ccccc1F)NC1C2CC3CC(C2)CC1C3` (stereo not shown) [3i, 1-(Adamantan-2-yl)-3-(2-fluorophenyl) urea] displayed a solubility in data set [1] of 80 to 90 µM (≈ 23.1 to 26 µg/mL). In data set [3], the “fold increase of activity compared to 3a” value is reported as 3.7 fold.
